# Measurements taken from patent US8410117B2, “Imidazopyrimidine derivatives” (Hoffmann-La Roche Inc., priority 2010, dated 2013).
# Molecular target: T1, human PDE10A (Homo sapiens, UniProt Q9Y233)
# T1 construct: The human PDE10A full length assay; purchased Enzo Life Science, Lausen, Switzerland SE-534
# Experiment: human PDE10A full length Scintillation Proximity Assay (SPA)
# Type: biochemical
# Conditions: 50 nM cGMP and 50 nM [3H]-cGMP, 20 minutes at room temperature; read-out: PDE10A inhibition IC50
# In short: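 Full-length enzyme at 3.75 ng/well in 20 mM HEPES pH 7.5, 10 mM MgCl2, 0.05 mg/ml BSA, with 50 nM cGMP plus 50 nM [3H]-cGMP substrate, 20 min at room temperature. Stopped with YSi-SPA beads in zinc sulphate and counted by scintillation. IC50 from inhibitor concentration series; no-enzyme wells define background.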
# T1 sequence (Q9Y233 1-779 isoform Q9Y233-1): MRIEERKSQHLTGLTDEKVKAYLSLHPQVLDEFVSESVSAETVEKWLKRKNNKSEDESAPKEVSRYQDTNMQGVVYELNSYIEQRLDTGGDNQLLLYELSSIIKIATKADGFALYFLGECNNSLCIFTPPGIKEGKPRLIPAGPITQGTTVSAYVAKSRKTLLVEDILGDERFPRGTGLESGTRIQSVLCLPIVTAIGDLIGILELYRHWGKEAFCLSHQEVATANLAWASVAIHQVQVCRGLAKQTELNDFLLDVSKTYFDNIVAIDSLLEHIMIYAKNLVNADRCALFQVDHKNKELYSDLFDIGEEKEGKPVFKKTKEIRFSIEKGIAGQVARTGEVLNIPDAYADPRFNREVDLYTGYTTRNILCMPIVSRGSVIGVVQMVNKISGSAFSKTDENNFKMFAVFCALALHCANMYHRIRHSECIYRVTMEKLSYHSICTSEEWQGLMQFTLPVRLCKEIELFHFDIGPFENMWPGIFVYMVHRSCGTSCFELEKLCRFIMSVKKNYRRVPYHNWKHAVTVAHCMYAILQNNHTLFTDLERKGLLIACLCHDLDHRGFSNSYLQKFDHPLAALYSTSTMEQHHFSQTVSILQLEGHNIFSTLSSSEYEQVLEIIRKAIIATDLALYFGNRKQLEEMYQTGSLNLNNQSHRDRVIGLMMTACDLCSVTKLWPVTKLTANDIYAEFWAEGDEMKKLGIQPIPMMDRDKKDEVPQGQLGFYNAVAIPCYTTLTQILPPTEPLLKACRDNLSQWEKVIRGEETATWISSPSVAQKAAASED
row,Structure (SMILES),IC50 [nM]
1,"Cn1ncc(C(=O)Nc2ccccc2)c1C(=O)Nc1ccn2cc(-c3ccccc3)nc2n1 [Example 133, 1-methyl-N4-phenyl-N5-(2-phenylimidazo[1,2-a]pyrimidin-7-yl)-1H-pyrazole-4,5-dicarboxamide]",52.2
2,"CCn1nc([N+](=O)[O-])cc1C(=O)Nc1ccn2cc(-c3ccccc3)nc2n1 [Example 15, 2-Ethyl-5-nitro-2H-pyrazole-3-carboxylic acid (2-phenyl-imidazo[1,2-a]pyrimidin-7-yl)-amide]",748
3,"CN(C)C(=O)c1cnn(C)c1C(=O)Nc1ccn2cc(-c3cccc(OCF)c3)nc2n1 [Example 88, 2-Methyl-2H-pyrazole-3,4-dicarboxylic acid 4-dimethylamide 3-{[2-(3-fluoromethoxy-phenyl)-imidazo[1,2-a]pyrimidin-7-yl]-amide}]",5.7
4,"Cn1ncc(C(=O)NCc2nc3ccccc3o2)c1C(=O)Nc1ccn2cc(-c3ccccc3)nc2n1 [Example 170, N4-(benzo[d]oxazol-2-ylmethyl)-1-methyl-N5-(2-phenylimidazo[1,2-a]pyrimidin-7-yl)-1H-pyrazole-4,5-dicarboxamide]",969
5,"CN(CCO)C(=O)c1cnn(C)c1C(=O)Nc1ccn2cc(-c3ccccc3)nc2n1 [Example 53, 2-Methyl-2H-pyrazole-3,4-dicarboxylic acid 4-[(2-hydroxy-ethyl)-methyl-amide]3-[(2-phenyl-imidazo[1,2-a]pyrimidin-7-yl)-amide]]",23.6
6,"Cn1ncc(C(=O)NCCC(F)(F)F)c1C(=O)Nc1ccn2cc(-c3ccccc3)nc2n1 [Example 126, 1-methyl-N5-(2-phenylimidazo[1,2-a]pyrimidin-7-yl)-N4-(3,3,3-trifluoropropyl)-1H-pyrazole-4,5-dicarboxamide]",24.7
7,"CN(CCOCCF)C(=O)c1cnn(C)c1C(=O)Nc1ccn2cc(-c3ccccc3)nc2n1 [Example 106, 2-Methyl-2H-pyrazole-3,4-dicarboxylic acid 4-{[2-(2-fluoro-ethoxy)-ethyl]-methyl-amide}3-[(2-phenyl-imidazo[1,2-a]pyrimidin-7-yl)-amide]]",43.3
8,"Cn1ncc(C(=O)NC2(C)COC2)c1C(=O)Nc1ccn2cc(-c3ccccc3)nc2n1 [Example 134, 1-methyl-N4-(3-methyloxetan-3-yl)-N5-(2-phenylimidazo[1,2-a]pyrimidin-7-yl)-1H-pyrazole-4,5-dicarboxamide]",57.6
9,"CC(C)n1ncc(Cl)c1C(=O)Nc1ccn2cc(-c3ccccc3)nc2n1 [Example 10, 4-Chloro-2-isopropyl-2H-pyrazole-3-carboxylic acid (2-phenyl-imidazo[1,2-a]pyrimidin-7-yl)-amide]",105
10,"O=C(Nc1ccn2cc(-c3ccccc3)nc2n1)c1ccno1 [Example 2, Isoxazole-5-carboxylic acid (2-phenyl-imidazo[1,2-a]pyrimidin-7-yl)-amide]",951
11,"CCCN(C)C(=O)c1cnn(C)c1C(=O)Nc1ccn2cc(-c3ccccc3)nc2n1 [Example 56, 2-Methyl-2H-pyrazole-3,4-dicarboxylic acid 4-(methyl-propyl-amide) 3-[(2-phenyl-imidazo[1,2-a]pyrimidin-7-yl)-amide]]",17.3
12,"Cn1ncc(C(=O)N2CCC2)c1C(=O)Nc1ccn2cc(-c3ccc(Cl)s3)nc2n1 [Example 74, 4-(Azetidine-1-carbonyl)-2-methyl-2H-pyrazole-3-carboxylic acid [2-(5-chloro-thiophen-2-yl)-imidazo[1,2-a]pyrimidin-7-yl]-amide]",4
13,"CC(C)n1nc([N+](=O)[O-])cc1C(=O)Nc1ccn2cc(-c3ccccc3)nc2n1 [Example 16, 2-Isopropyl-5-nitro-2H-pyrazole-3-carboxylic acid (2-phenyl-imidazo[1,2-a]pyrimidin-7-yl)-amide]",82.1
14,"CN(Cc1ccccn1)C(=O)c1cnn(C)c1C(=O)Nc1ccn2cc(-c3ccccc3)nc2n1 [Example 135, N4,1-dimethyl-N5-(2-phenylimidazo[1,2-a]pyrimidin-7-yl)-N4-(pyridin-2-ylmethyl)-1H-pyrazole-4,5-dicarboxamide]",64.1
15,"Cn1ncc(C(=O)NCc2cc(C3CC3)[nH]n2)c1C(=O)Nc1ccn2cc(-c3ccccc3)nc2n1 [Example 152, N4-((5-cyclopropyl-1H-pyrazol-3-yl)methyl)-1-methyl-N5-(2-phenylimidazo[1,2-a]pyrimidin-7-yl)-1H-pyrazole-4,5-dicarboxamide]",302
16,"Cn1ncc(C(=O)NCc2ccn[nH]2)c1C(=O)Nc1ccn2cc(-c3ccccc3)nc2n1 [Example 113, N4-((1H-pyrazol-5-yl)methyl)-1-methyl-N5-(2-phenylimidazo[1,2-a]pyrimidin-7-yl)-1H-pyrazole-4,5-dicarboxamide]",2.6
17,"CCN(C)C(=O)c1cnn(CC)c1C(=O)Nc1ccn2cc(-c3ccccc3)nc2n1 [Example 73, 2-Ethyl-2H-pyrazole-3,4-dicarboxylic acid 4-(ethyl-methyl-amide) 3-[(2-phenyl-imidazo[1,2-a]pyrimidin-7-yl)-amide]]",2.8

row,Structure (SMILES),IC50 [nM]
1,"COC(=O)c1[nH]nnc1C(=O)Nc1ccn2cc(-c3ccccc3)nc2n1 [Example 26, 5-(2-Phenyl-imidazo[1,2-a]pyrimidin-7-ylcarbamoyl)-3H-[1,2,3]triazole-4-carboxylic acid methyl ester]",24
2,"O=C(Nc1ccn2cc(-c3ccccc3)nc2n1)c1cccnc1C(=O)N1CCC1 [Example 44, 2-(Azetidine-1-carbonyl)-N-(2-phenyl-imidazo[1,2-a]pyrimidin-7-yl)-nicotinamide]",813
3,"Cn1ncc(C(=O)NC2CCC2)c1C(=O)Nc1ccn2cc(-c3ccccc3)nc2n1 [Example 59, 2-Methyl-2H-pyrazole-3,4-dicarboxylic acid 4-cyclobutylamide 3-[(2-phenyl-imidazo[1,2-a]pyrimidin-7-yl)-amide]]",21.1
4,"Cn1ncc(C(=O)N2CC(F)C2)c1C(=O)Nc1ccn2cc(-c3cccc(F)c3)nc2n1 [Example 92, 4-(3-Fluoro-azetidine-1-carbonyl)-2-methyl-2H-pyrazole-3-carboxylic acid [2-(3-fluoro-phenyl)-imidazo[1,2-a]pyrimidin-7-yl]-amide]",6.5
5,"O=C(Nc1ccn2cc(-c3ccccc3)nc2n1)c1cc([N+](=O)[O-])nn1C1CCCC1 [Example 14, 2-Cyclopentyl-5-nitro-2H-pyrazole-3-carboxylic acid (2-phenyl-imidazo[1,2-a]pyrimidin-7-yl)-amide]",125
6,"CC(C)CN(C)C(=O)c1cnn(C)c1C(=O)Nc1ccn2cc(-c3ccccc3)nc2n1 [Example 71, 2-Methyl-2H-pyrazole-3,4-dicarboxylic acid 4-(isobutyl-methyl-amide) 3-[(2-phenyl-imidazo[1,2-a]pyrimidin-7-yl)-amide]]",17.6
7,"Cn1cc2c(n1)CN(C(=O)c1cnn(C)c1C(=O)Nc1ccn3cc(-c4ccccc4)nc3n1)C2 [Example 169, 1-methyl-4-(2-methyl-2,4,5,6-tetrahydropyrrolo[3,4-c]pyrazole-5-carbonyl)-N-(2-phenylimidazo[1,2-a]pyrimidin-7-yl)-1H-pyrazole-5-carboxamide]",963
8,"Cc1cnc(CNC(=O)c2cnn(C)c2C(=O)Nc2ccn3cc(-c4ccccc4)nc3n2)s1 [Example 124, 1-methyl-N4-((5-methylthiazol-2-yl)methyl)-N5-(2-phenylimidazo[1,2-a]pyrimidin-7-yl)-1H-pyrazole-4,5-dicarboxamide]",17.7
9,"CNC(=O)c1[nH]nnc1C(=O)Nc1ccn2cc(-c3ccccc3)nc2n1 [Example 65, 1H-[1,2,3]Triazole-4,5-dicarboxylic acid 5-methylamide 4-[(2-phenyl-imidazo[1,2-a]pyrimidin-7-yl)-amide]]",34.8
10,"Cn1ncc(C(=O)NCC#N)c1C(=O)Nc1ccn2cc(-c3ccccc3)nc2n1 [Example 125, N4-(cyanomethyl)-1-methyl-N5-(2-phenylimidazo[1,2-a]pyrimidin-7-yl)-1H-pyrazole-4,5-dicarboxamide]",18.7
11,"Cn1ncc(C(=O)N2CCC2)c1C(=O)Nc1ccn2cc(-c3cccc(-c4ccccc4)c3)nc2n1 [Example 128, 4-(azetidine-1-carbonyl)-N-(2-(biphenyl-3-yl)imidazo[1,2-a]pyrimidin-7-yl)-1-methyl-1H-pyrazole-5-carboxamide]",26
12,"CN(C)C(=O)c1cnn(C)c1C(=O)Nc1ccn2cc(-c3ccccc3)nc2n1 [Example 75, 2-Methyl-2H-pyrazole-3,4-dicarboxylic acid 4-dimethylamide 3-[(2-phenyl-imidazo[1,2-a]pyrimidin-7-yl)-amide]]",4.9
13,"CCN(C)C(=O)c1cnn(C)c1C(=O)Nc1ccn2cc(-c3cccc(OC)c3)nc2n1 [Example 87, N-4-ethyl-N5-(2-(3-methoxyphenyl)imidazo[1,2-a]pyrimidin-7-yl)-N-4,1-dimethyl-1H-pyrazole-4,5-dicarboxamide]",5.5
14,"CCN(C)C(=O)c1cnn(C)c1C(=O)Nc1ccn2cc(-c3cccc(OCF)c3)nc2n1 [Example 86, N-4-Ethyl-N5-(2-(3-(fluoromethoxy)phenyl)imidazo[1,2-a]pyrimidin-7-yl)-N4,1-dimethyl-1H-pyrazole-4,5-dicarboxamide]",5.2
15,"COCCN(C)C(=O)c1cnn(C)c1C(=O)Nc1ccn2cc(-c3cccc(F)c3)nc2n1 [Example 107, 2-Methyl-2H-pyrazole-3,4-dicarboxylic acid 3-{[2-(3-fluoro-phenyl)-imidazo[1,2-a]pyrimidin-7-yl]-amide}4-[(2-methoxy-ethyl)-methyl-amide]]",51.9
16,"Cn1ncc(C(=O)NCC(F)(F)F)c1C(=O)Nc1ccn2cc(-c3ccccc3)nc2n1 [Example 130, 1-methyl-N5-(2-phenylimidazo[1,2-a]pyrimidin-7-yl)-N4-(2,2,2-trifluoroethyl)-1H-pyrazole-4,5-dicarboxamide]",34.9
